Entries after “also recorded” stand apart in the source; their conditions may differ.
Legend:
Sigma2 = test: NIMH PDSP radioligand binding, Sigma2; conditions: 10 μM; radioligand [3H]DTG; n=4
Method: IC50 values in μM (Ki μM)^a. The targets in bold were inhibited by >35% at 10 μM.

[1] = system: tsA201 cells transiently expressing hBGT1; test: Fluo-4 Ca2+-assay in tsA201 cells transiently expressing hBGT1; format: cell-based, human; conditions: within the 3 min timeframe; blocked by BAPTA/AM
Method: Emission was recorded for 20 s. before adding the compounds (at 4 × concentrations) to the HBSS-HEPES buffer to determine the baseline. […] Data presented is the pooled data of at least three independent experiments with three technical replicates. Changes in fluorescence units (ΔFU) were determined as the maximum fluorescent signal within the 190 s minus the average of the baseline.

hBGT1 Q299L = target: T1, hBGT1 Q299L (Homo sapiens, UniProt P48065, Q299L); test: [3H]GABA uptake at hBGT1 Q299L mutant in tsA201 cells; format: cell-based; conditions: data not shown
T1 construct: expressed in transfected cells; host or cells: tsA201 (transient)
T1 sequence (P48065 whole entry Q299L): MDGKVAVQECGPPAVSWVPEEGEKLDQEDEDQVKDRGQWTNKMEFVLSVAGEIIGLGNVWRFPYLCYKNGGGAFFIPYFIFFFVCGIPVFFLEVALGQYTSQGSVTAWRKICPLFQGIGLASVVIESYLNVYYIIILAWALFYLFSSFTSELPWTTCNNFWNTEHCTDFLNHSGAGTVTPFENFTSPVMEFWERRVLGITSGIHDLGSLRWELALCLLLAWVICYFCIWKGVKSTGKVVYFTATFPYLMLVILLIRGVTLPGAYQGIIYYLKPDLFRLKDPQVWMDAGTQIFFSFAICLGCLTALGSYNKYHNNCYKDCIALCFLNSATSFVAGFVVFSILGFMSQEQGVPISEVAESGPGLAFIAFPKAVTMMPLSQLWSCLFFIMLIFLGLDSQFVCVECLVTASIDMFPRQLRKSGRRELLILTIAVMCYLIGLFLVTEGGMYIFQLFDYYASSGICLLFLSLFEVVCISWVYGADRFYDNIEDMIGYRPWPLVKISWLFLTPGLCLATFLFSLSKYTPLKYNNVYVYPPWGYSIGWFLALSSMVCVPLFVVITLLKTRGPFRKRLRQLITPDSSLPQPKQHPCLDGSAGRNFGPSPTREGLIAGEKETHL
Method: (§1) The HEK-293 and Flp-In CHO cell lines stably expressing mouse (m) and human (h) GATs, respectively, have been described previously and were cultured accordingly. The tsA201 cell line was used for transient expression while the MDCK II cell line express BGT1 endogenously. Both cell lines were cultured as described. tsA201 cells were transfected with DNA constructs (8 μg per 10 cm dish if not otherwise mentioned) using 40 μL PolyFect transfection reagent according to the manufacturer’s protocol (Qiagen, Venlo, Netherlands). The DNA constructs encoding hBGT1, hGAT1-3 [36], the mutated constructs hBGT1 Q299 and hGAT3 L314Q described previously, and hBGT Y453A were synthesized and sequence validated by Genscript (NJ, USA).
(§2) The [^3H]GABA competition uptake assay was performed as previously described. A minor change, however, was introduced for uptake in MDCK II cells, in which 100 nM [^3H]GABA was used for a 15 min incubation period at 37 °C instead of 30 nM [^3H]GABA and 3 min incubation. Studies related to the inhibition curves with GABA and BPDBA at hBGT1 were obtained both with and without the presence of 10 μM ATP during the [^3H]GABA uptake assay.
The [^3H]GABA uptake data was normalized to the percentage of total uptake in the individual experiments in the presence of the lowest compound concentration or no compound present. […]

NET = target: T2, NET (Homo sapiens, UniProt P23975); test: NIMH PDSP radioligand binding, NET; conditions: radioligand [3H]nisoxetine, n=4
T2 construct: purchased NIMH Psychoactive Drug Screening Program (PDSP)
T2 sequence (P23975 whole entry): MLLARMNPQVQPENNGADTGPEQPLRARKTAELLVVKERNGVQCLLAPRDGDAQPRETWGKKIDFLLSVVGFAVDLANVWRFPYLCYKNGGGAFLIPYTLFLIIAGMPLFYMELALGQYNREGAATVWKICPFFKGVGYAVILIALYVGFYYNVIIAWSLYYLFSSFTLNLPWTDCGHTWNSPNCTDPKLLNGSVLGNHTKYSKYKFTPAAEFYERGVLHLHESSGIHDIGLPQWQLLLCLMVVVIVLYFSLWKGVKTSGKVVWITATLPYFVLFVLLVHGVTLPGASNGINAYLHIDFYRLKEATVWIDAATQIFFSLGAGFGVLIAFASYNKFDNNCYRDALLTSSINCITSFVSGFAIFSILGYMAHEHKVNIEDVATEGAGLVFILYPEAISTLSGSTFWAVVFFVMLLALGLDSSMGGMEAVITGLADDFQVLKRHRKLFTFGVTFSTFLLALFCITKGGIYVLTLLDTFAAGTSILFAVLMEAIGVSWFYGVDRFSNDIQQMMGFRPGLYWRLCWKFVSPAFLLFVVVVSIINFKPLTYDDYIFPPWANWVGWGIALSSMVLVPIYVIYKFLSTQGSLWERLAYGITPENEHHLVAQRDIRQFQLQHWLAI

CF-1 mice = test: Maximal electroshock (MES) test; format: in vivo, mouse; conditions: for #Protected/#Tested: 15 min
From the text: Male audiogenic-susceptible (AGS) Frings mice were obtained from an in-house breeding facility at the University of Utah (Salt Lake City, UT, USA). Male CF-1 mice for the maximal electroshock (MES) test and the subcutaneous pentylenetetrazol (s.c.PTZ) seizure threshold test were purchased from Charles River (Kingston, WA, USA). All mice were housed in a temperature, humidity, and light (on at 6:00 AM) controlled facility at the University of Utah with access to ad libitum food and water except during testing. All procedures were carried out at the University of Utah in concordance with the National Institutes of Health Guidelines for the Care and Use of Laboratory Animals and under approval from the University of Utah’s Institutional Animal Care and Use Committee. The mice were euthanized in accordance with Public Health Service policies on the humane care of laboratory animals. […] This is a model of generalised tonic–clonic seizures, and was conducted as described previously. In brief, a drop of anaesthetic/electrolyte solution (0.5% tetracaine hydrochloride in 0.9% saline) was applied to the cornea of each animal prior to placement of the silver-coated corneal electrodes. An alternating current of 50 mA (60 Hz) was delivered for 0.2 s to the cornea of the mouse using a Woodbury–Davenport stimulator. The supramaximal current applied to the cornea was sufficient to induce maximal tonic extension seizures in all non-treated mice. […] Those mice not displaying full hind limb tonic extension seizures were considered protected. Probit analysis was used to analyse the efficacy and tolerability results obtained from the dose–response studies and to calculate the median effective (ED50) dose, the median toxic dose (TD50), and the 95% confidence interval.

D5 = target: T3, D5 (Homo sapiens, UniProt P21918); test: NIMH PDSP radioligand binding, D5; conditions: radioligand [3H]SCH23390
T3 construct: NIMH PDSP (screening service)
T3 sequence (P21918 whole entry): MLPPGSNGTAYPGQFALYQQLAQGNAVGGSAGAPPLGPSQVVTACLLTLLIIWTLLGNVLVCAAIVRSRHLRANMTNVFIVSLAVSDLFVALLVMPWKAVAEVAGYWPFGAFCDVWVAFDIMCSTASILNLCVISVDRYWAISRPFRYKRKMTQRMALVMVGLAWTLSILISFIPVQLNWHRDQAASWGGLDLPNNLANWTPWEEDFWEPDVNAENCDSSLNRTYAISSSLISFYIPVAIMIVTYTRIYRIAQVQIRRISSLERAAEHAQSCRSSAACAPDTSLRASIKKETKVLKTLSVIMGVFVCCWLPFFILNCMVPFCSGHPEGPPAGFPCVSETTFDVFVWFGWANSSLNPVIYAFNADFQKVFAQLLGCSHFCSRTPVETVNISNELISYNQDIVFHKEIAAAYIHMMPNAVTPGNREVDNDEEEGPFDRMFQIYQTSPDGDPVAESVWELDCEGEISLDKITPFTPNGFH

hGAT1 = target: T4, hGAT1 (Homo sapiens, UniProt P30531); test: [3H]GABA uptake at hGAT1 stably expressed in CHO cells; format: cell-based; conditions: for IC50: CHO
T4 construct: expressed in transfected cells
T4 sequence (P30531 whole entry): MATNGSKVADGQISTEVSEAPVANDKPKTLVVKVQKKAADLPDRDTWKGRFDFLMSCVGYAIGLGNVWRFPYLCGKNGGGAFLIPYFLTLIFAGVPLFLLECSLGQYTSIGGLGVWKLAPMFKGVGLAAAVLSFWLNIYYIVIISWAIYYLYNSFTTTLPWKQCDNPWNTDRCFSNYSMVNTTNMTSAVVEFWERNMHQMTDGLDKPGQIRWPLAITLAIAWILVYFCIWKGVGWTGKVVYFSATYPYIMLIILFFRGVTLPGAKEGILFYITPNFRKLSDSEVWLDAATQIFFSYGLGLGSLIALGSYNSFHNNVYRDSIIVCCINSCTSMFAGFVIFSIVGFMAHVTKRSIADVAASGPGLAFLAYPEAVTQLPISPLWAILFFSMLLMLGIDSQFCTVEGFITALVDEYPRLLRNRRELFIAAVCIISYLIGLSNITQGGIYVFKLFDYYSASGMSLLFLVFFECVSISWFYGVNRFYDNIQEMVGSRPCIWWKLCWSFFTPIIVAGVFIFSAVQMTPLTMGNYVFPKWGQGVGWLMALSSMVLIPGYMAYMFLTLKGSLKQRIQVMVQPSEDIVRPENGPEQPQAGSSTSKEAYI
Method: as §1, §2
The [^3H]GABA uptake data was normalized to the percentage of total uptake in the individual experiments in the presence of the lowest compound concentration or no compound present. Data presented is the pooled data of at least three independent experiments with three technical replicates. Concentration–response curves (CRCs) were fitted with GraphPad Prism (version 8.2.1, Yosemite, GraphPad Software, San Diego, CA, USA) by non-linear regression to the sigmoidal concentration response model: Y=Bottom+(Top-Bottom)/1+10^LogIC50-X∗nH where Top is the Top plateau, Bottom is the Bottom plateau, X is the logarithm of the concentration of the compound, LogIC50 is the concentration giving a response halfway between Top and Bottom,and nH is the Hill slope.
The best fit for CRCs obtained with the [^3H]GABA uptake assay was identified by the extra-sum-of-squares F test (for convenience referred to as F test).

D2 = target: T5, D2 (Homo sapiens, UniProt P14416); test: NIMH PDSP radioligand binding, D2; conditions: radioligand [3H]N-methylspiperone, n=4
T5 construct: purchased NIMH Psychoactive Drug Screening Program (PDSP)
T5 sequence (P14416 whole entry): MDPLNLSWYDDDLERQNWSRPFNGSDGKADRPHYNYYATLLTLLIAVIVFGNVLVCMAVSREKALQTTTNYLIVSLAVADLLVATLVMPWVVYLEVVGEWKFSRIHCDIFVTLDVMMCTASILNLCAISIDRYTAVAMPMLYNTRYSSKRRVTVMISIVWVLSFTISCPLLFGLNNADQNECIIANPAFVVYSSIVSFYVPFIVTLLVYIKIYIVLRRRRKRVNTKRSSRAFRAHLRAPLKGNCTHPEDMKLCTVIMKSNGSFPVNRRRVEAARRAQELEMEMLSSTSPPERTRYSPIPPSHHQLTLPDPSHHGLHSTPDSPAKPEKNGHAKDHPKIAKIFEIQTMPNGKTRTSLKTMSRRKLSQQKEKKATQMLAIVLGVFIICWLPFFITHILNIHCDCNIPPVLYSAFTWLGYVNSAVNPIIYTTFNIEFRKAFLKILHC

KOR = target: T6, KOR (Homo sapiens, UniProt P41145); test: NIMH PDSP radioligand binding, KOR; conditions: radioligand [3H]U69593, n=4
T6 construct: purchased NIMH Psychoactive Drug Screening Program (PDSP)
T6 sequence (P41145 whole entry): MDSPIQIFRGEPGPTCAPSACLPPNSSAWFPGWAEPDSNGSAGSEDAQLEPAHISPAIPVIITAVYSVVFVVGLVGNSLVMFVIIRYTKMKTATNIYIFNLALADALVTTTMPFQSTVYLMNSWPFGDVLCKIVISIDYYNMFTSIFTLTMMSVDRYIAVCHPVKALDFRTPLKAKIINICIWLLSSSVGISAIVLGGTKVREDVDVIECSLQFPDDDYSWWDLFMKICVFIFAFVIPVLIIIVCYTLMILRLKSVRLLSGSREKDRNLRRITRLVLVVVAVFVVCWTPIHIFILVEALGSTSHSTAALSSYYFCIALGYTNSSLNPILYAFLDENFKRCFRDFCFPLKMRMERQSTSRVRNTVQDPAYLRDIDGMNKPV

In the case of `Cc1ccsc1C(=CCCN(C)[C@H]1CCCC[C@H]1C(=O)O)c1sccc1C` [SBV2-114, (1R,2S)-2-((4,4-bis(3-methylthiophen-2-yl)but-3-en-yl)(methyl)amino)cyclohexanecarboxylic acid], the “% inhibition” value (Sigma2) is reported as 48.3%, the “intracellular Ca2+ increase” value [1] is reported as “triggered an intracellular Ca^2+ increase at 200 μM and 500 μM” and the “inhibition profile and activity at hBGT1 Q299L” value (hBGT1 Q299L) is reported as “clear biphasic inhibition profile and no significant altered activity”. The inhibition at 10 µM (NET) was 0.1%, the “#Protected/#Tested” value (CF-1 mice; 50 mg/kg i.p.) was 0/3 and the “#Protected/#Tested” value (CF-1 mice; 100 mg/kg i.p.) was 0/4. The “#Protected/#Tested” value (CF-1 mice; 125 mg/kg i.p.) was 2/7, the “#Protected/#Tested” value (CF-1 mice; 150 mg/kg i.p.) was 4/6 and the “#Protected/#Tested” value (CF-1 mice; 200 mg/kg i.p.) was 4/4. It also gave an ED50 (CF-1 mice; Mus musculus, ip) of 139 mg/kg, an inhibition at 10 µM (D5; 10 μM, n=4) of 51.7% and a Ki (D5; full curve, printed with 'ave') of 10 µM. For the same molecule, the IC50 (hGAT1; ambiguous fit, N=2) was 566 µM, the IC50 (hGAT1; monophasic fit, N=1) was 476 µM and the Fit (hGAT1; preferred model per experiment) was “Ambiguous; also recorded: Monophasic”. The inhibition at 10 µM (D2) was 12.3% and the inhibition at 10 µM (KOR) was 40.8%.

— publication PMC7297817, “Pharmacological Characterization of a Betaine/GABA Transporter 1 (BGT1) Inhibitor Displaying an Unusual Biphasic Inhibition Profile and Anti-seizure Effects” (Neurochemical Research, 2020)
